# Test system: 596521-263-R-J1-PDC complex spheroid growth
# Assay: Anticancer human tumor 596521-263-R-J1-PDC patient-derived soft tissue sarcoma cell line growth inhibition [Asc]
# Conditions: for IC50: curve of first compound; for viability, T/C: stronger effect = lower value
# How it was run: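 Spheroid model: tumor line + HUVEC + hMSC. Single agents and combinations; top conc. at/near clinical Cmax (10 microM if undetermined), half-log dilutions. DMSO stocks at 800-fold test concentration.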
# [1] = second compound 0.00949 µM, first compound 0.00316 µM
# [2] = second compound 0.00949 µM, first compound 0.01 µM
# [3] = second compound 0.00949 µM, first compound 0.0316 µM
# [4] = second compound 0.00949 µM, first compound 0.1 µM
# [5] = second compound 0.03 µM, first compound 0.00316 µM
# [6] = second compound 0.03 µM, first compound 0.01 µM
# [7] = second compound 0.03 µM, first compound 0.0316 µM
# [8] = second compound 0.03 µM, first compound 0.1 µM
# [9] = second compound 0.0949 µM, first compound 0.00316 µM
# [10] = second compound 0.0949 µM, first compound 0.01 µM
# [11] = second compound 0.0949 µM, first compound 0.0316 µM
# [12] = second compound 0.0949 µM, first compound 0.1 µM
# [13] = second compound 0.3 µM, first compound 0.00316 µM
# [14] = second compound 0.3 µM, first compound 0.01 µM
# [15] = second compound 0.3 µM, first compound 0.0316 µM
# [16] = second compound 0.3 µM, first compound 0.1 µM
# [17] = second compound 0.949 µM, first compound 0.00316 µM
# [18] = second compound 0.949 µM, first compound 0.01 µM
# [19] = second compound 0.949 µM, first compound 0.0316 µM
# [20] = second compound 0.949 µM, first compound 0.1 µM
# [21] = second compound 3 µM, first compound 0.00316 µM
# [22] = second compound 3 µM, first compound 0.01 µM
# [23] = second compound 3 µM, first compound 0.0316 µM
# [24] = second compound 3 µM, first compound 0.1 µM
# 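Note: spheroids exposed to compounds for 7 days.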
smiles,measurement,setting,value
Cn1ncnc1[C@H]1c2n[nH]c(=O)c3cc(F)cc(c23)N[C@@H]1c1ccc(F)cc1 + CCN1C(C(=O)NC23CCC(C(=O)O)(CC2)CC3)C(c2cccc(Cl)c2F)C2(C(=O)Nc3cc(Cl)ccc32)C12CCCCC2,IC50,second compound 0.00949 µM,> 100 nM
same,IC50,second compound 0.03 µM,> 100 nM
same,IC50,second compound 0.0949 µM,> 100 nM
same,IC50,second compound 0.3 µM,> 100 nM
same,IC50,second compound 0.949 µM,> 100 nM
same,IC50,second compound 3 µM,> 100 nM
same,"viability, T/C","second compound 0.00949 µM, first compound 0.000316 µM",109%
same,"viability, T/C","second compound 0.00949 µM, first compound 0.001 µM",94.8%
same,"viability, T/C",[1],96.6%
same,"viability, T/C",[2],91.8%
same,"viability, T/C",[3],88.4%
same,"viability, T/C",[4],81.8%
same,"viability, T/C","second compound 0.03 µM, first compound 0.000316 µM",103%
same,"viability, T/C","second compound 0.03 µM, first compound 0.001 µM",98.1%
same,"viability, T/C",[5],100%
same,"viability, T/C",[6],105%
same,"viability, T/C",[7],90.1%
same,"viability, T/C",[8],81.1%
same,"viability, T/C","second compound 0.0949 µM, first compound 0.000316 µM",104%
same,"viability, T/C","second compound 0.0949 µM, first compound 0.001 µM",102%
same,"viability, T/C",[9],106%
same,"viability, T/C",[10],88.7%
same,"viability, T/C",[11],87.8%
same,"viability, T/C",[12],78.6%
same,"viability, T/C","second compound 0.3 µM, first compound 0.000316 µM",104%
same,"viability, T/C","second compound 0.3 µM, first compound 0.001 µM",99.9%
same,"viability, T/C",[13],110%
same,"viability, T/C",[14],108%
same,"viability, T/C",[15],104%
same,"viability, T/C",[16],87.3%
same,"viability, T/C","second compound 0.949 µM, first compound 0.000316 µM",102%
same,"viability, T/C","second compound 0.949 µM, first compound 0.001 µM",91.2%
same,"viability, T/C",[17],91.2%
same,"viability, T/C",[18],92.4%
same,"viability, T/C",[19],99.4%
same,"viability, T/C",[20],85.5%
same,"viability, T/C","second compound 3 µM, first compound 0.000316 µM",76.4%
same,"viability, T/C","second compound 3 µM, first compound 0.001 µM",78.5%
same,"viability, T/C",[21],80.6%
same,"viability, T/C",[22],70.3%
same,"viability, T/C",[23],75.3%
same,"viability, T/C",[24],65.7%
CCN1CCN(Cc2ccc(Nc3ncc(F)c(-c4cc(F)c5nc(C)n(C(C)C)c5c4)n3)nc2)CC1 + CCN1C(C(=O)NC23CCC(C(=O)O)(CC2)CC3)C(c2cccc(Cl)c2F)C2(C(=O)Nc3cc(Cl)ccc32)C12CCCCC2,IC50,second compound 0.00949 µM,> 1000 nM
same,IC50,second compound 0.03 µM,> 1000 nM
same,IC50,second compound 0.0949 µM,> 1000 nM
same,IC50,second compound 0.3 µM,> 1000 nM
same,IC50,second compound 0.949 µM,> 1000 nM
same,IC50,second compound 3 µM,> 1000 nM
same,"viability, T/C",[1],100%
same,"viability, T/C",[2],96.6%
same,"viability, T/C",[3],82.5%
same,"viability, T/C",[4],103%
same,"viability, T/C","second compound 0.00949 µM, first compound 0.316 µM",97.5%
same,"viability, T/C","second compound 0.00949 µM, first compound 1 µM",83.2%
same,"viability, T/C",[5],92.6%
same,"viability, T/C",[6],96.9%
same,"viability, T/C",[7],96.8%
same,"viability, T/C",[8],89.4%
same,"viability, T/C","second compound 0.03 µM, first compound 0.316 µM",110%
same,"viability, T/C","second compound 0.03 µM, first compound 1 µM",88%
same,"viability, T/C",[9],99.5%
same,"viability, T/C",[10],112%
same,"viability, T/C",[11],96.1%
same,"viability, T/C",[12],85.5%
same,"viability, T/C","second compound 0.0949 µM, first compound 0.316 µM",93.6%
same,"viability, T/C","second compound 0.0949 µM, first compound 1 µM",86.7%
same,"viability, T/C",[13],97.1%
same,"viability, T/C",[14],93.5%
same,"viability, T/C",[15],90%
same,"viability, T/C",[16],102%
same,"viability, T/C","second compound 0.3 µM, first compound 0.316 µM",93.1%
same,"viability, T/C","second compound 0.3 µM, first compound 1 µM",77.3%
same,"viability, T/C",[17],103%
same,"viability, T/C",[18],93.2%
same,"viability, T/C",[19],103%
same,"viability, T/C",[20],91.2%
same,"viability, T/C","second compound 0.949 µM, first compound 0.316 µM",82.8%
same,"viability, T/C","second compound 0.949 µM, first compound 1 µM",83.4%
same,"viability, T/C",[21],91.6%
same,"viability, T/C",[22],102%
same,"viability, T/C",[23],89.9%
same,"viability, T/C",[24],97.7%
same,"viability, T/C","second compound 3 µM, first compound 0.316 µM",98.5%
same,"viability, T/C","second compound 3 µM, first compound 1 µM",89.9%
NC1CCC(NC2CC2c2ccccc2)CC1 (stereo unspecified) + Cc1c(S(C)(=O)=O)c(-c2cc(F)cc(N3CCN(c4ccc(NS(=O)(=O)c5ccc(NC(CCN6CCC(C(=O)OCCCP(=O)(O)O)CC6)CSc6ccccc6)c(S(=O)(=O)C(F)(F)F)c5)cc4)CC3)c2)c(-c2ccc(Cl)cc2)n1C(C)C,IC50,second compound 0.0316 µM,> 100 nM
same,IC50,second compound 0.1 µM,> 100 nM
same,IC50,second compound 0.316 µM,> 100 nM
same,IC50,second compound 1 µM,> 100 nM
same,IC50,second compound 3.16 µM,> 100 nM
same,IC50,second compound 10 µM,< 0.316 nM
same,"viability, T/C","second compound 0.0316 µM, first compound 0.000316 µM",79.8%
same,"viability, T/C","second compound 0.0316 µM, first compound 0.001 µM",88.9%
same,"viability, T/C","second compound 0.0316 µM, first compound 0.00316 µM",80.2%
same,"viability, T/C","second compound 0.0316 µM, first compound 0.01 µM",90.4%
same,"viability, T/C","second compound 0.0316 µM, first compound 0.0316 µM",89.2%
same,"viability, T/C","second compound 0.0316 µM, first compound 0.1 µM",80.6%
same,"viability, T/C","second compound 0.1 µM, first compound 0.000316 µM",86.7%
same,"viability, T/C","second compound 0.1 µM, first compound 0.001 µM",91.8%
same,"viability, T/C","second compound 0.1 µM, first compound 0.00316 µM",77.5%
same,"viability, T/C","second compound 0.1 µM, first compound 0.01 µM",89.7%
same,"viability, T/C","second compound 0.1 µM, first compound 0.0316 µM",86.5%
same,"viability, T/C","second compound 0.1 µM, first compound 0.1 µM",80.8%
same,"viability, T/C","second compound 0.316 µM, first compound 0.000316 µM",84.1%
same,"viability, T/C","second compound 0.316 µM, first compound 0.001 µM",77.6%
same,"viability, T/C","second compound 0.316 µM, first compound 0.00316 µM",75.9%
same,"viability, T/C","second compound 0.316 µM, first compound 0.01 µM",77.9%
same,"viability, T/C","second compound 0.316 µM, first compound 0.0316 µM",76.7%
same,"viability, T/C","second compound 0.316 µM, first compound 0.1 µM",75.7%
same,"viability, T/C","second compound 1 µM, first compound 0.000316 µM",81.2%
same,"viability, T/C","second compound 1 µM, first compound 0.001 µM",75.8%
same,"viability, T/C","second compound 1 µM, first compound 0.00316 µM",66.3%
same,"viability, T/C","second compound 1 µM, first compound 0.01 µM",72.7%
same,"viability, T/C","second compound 1 µM, first compound 0.0316 µM",68.7%
same,"viability, T/C","second compound 1 µM, first compound 0.1 µM",74.1%
same,"viability, T/C","second compound 3.16 µM, first compound 0.000316 µM",69.1%
same,"viability, T/C","second compound 3.16 µM, first compound 0.001 µM",55.7%
same,"viability, T/C","second compound 3.16 µM, first compound 0.00316 µM",51.9%
same,"viability, T/C","second compound 3.16 µM, first compound 0.01 µM",58.9%
same,"viability, T/C","second compound 3.16 µM, first compound 0.0316 µM",55.4%
same,"viability, T/C","second compound 3.16 µM, first compound 0.1 µM",53.4%
same,"viability, T/C","second compound 10 µM, first compound 0.000316 µM",48.6%
same,"viability, T/C","second compound 10 µM, first compound 0.001 µM",42.9%
same,"viability, T/C","second compound 10 µM, first compound 0.00316 µM",44.2%
same,"viability, T/C","second compound 10 µM, first compound 0.01 µM",49%
same,"viability, T/C","second compound 10 µM, first compound 0.0316 µM",35.7%
same,"viability, T/C","second compound 10 µM, first compound 0.1 µM",43%

# Source: PubChem BioAssay AID1963449 (Molecular Pharmacology Branch, DTP, NCI, 2024)
